Measurements published in the NIST ThermoML archive (doi:10.1016/j.fluid.2016.04.009).

Key:
[1] = Molar enthalpy of transition or fusion; conditions: Crystal; DSC
[2] = molar heat capacity at constant pressure; conditions: 298.15 K; 101.33 kPa; Liquid; Drop calorimetry
[3] = for viscosity / mass density: 101.33 kPa; for viscosity / mass density / surface tension liquid-gas: Liquid; for viscosity: Concentric cylinders viscometry; for mass density: Vibrating tube method; for Normal melting temperature: Crystal, DTA; for surface tension liquid-gas: Pendant drop shape
[4] = refractive index (Na D-line) (dimensionless); conditions: 101.33 kPa, Liquid, Standard Abbe refractometry

CCCC[N+]1(C)CCCC1.O=S(=O)([N-]S(=O)(=O)C(F)(F)F)C(F)(F)F
Conditions | Molar enthalpy of transition or fusion [kcal/mol] | Normal melting temperature [°C] | molar heat capacity at constant pressure [J/K/mol]
[1] | 4.83 | – | –
[2] | – | – | 584.19
[3] | – | -13.4 | –

Conditions | mass density, [3] [kg/m3] | refractive index, [4] | viscosity, [3] [mPa·s]
288.15 K | – | 1.42612 | –
293.15 K | 1406.1 | 1.42466 | 101.71
298.15 K | 1401.6 | 1.42319 | 79.57
303.15 K | 1397.2 | 1.42173 | 63.64
308.15 K | 1392.7 | 1.42027 | 51.71
313.15 K | 1388.3 | 1.4188 | 42.67
318.15 K | 1383.8 | 1.41734 | 35.6
323.15 K | 1379.4 | – | 30.07
328.15 K | 1375.1 | – | 25.66
333.15 K | 1370.7 | – | 22.16
338.15 K | 1366.4 | – | 19.21
343.15 K | 1362.1 | – | 16.83
348.15 K | 1357.8 | – | 14.84
353.15 K | 1353.6 | – | 13.21
358.15 K | 1349.3 | – | 11.77
363.15 K | 1345.1 | – | 10.57

CC(C)C[N+]1(C)CCCC1.O=S(=O)([N-]S(=O)(=O)C(F)(F)F)C(F)(F)F
Conditions | Molar enthalpy of transition or fusion [kcal/mol] | Normal melting temperature [°C] | molar heat capacity at constant pressure [J/K/mol]
[1] | 3.13 | – | –
[2] | – | – | 582.08
[3] | – | -0.2 | –

Conditions | mass density [kg/m3] | refractive index | surface tension liquid-gas [mN/m] | viscosity [mPa·s]
[3], 293.15 K | 1404.5 | – | – | 83.61
[3], 298.15 K | 1400 | – | – | 66.29
[3], 298.2 K | – | – | 33.54 | –
[3], 303.15 K | 1395.6 | – | – | 53.53
[3], 308.15 K | 1391.2 | – | – | 43.91
[3], 308.2 K | – | – | 33.1 | –
[3], 313.15 K | 1386.8 | – | – | 36.52
[3], 318.15 K | 1382.4 | – | – | 30.75
[3], 318.2 K | – | – | 32.65 | –
[3], 323.15 K | 1378 | – | – | 26.18
[3], 328.15 K | 1373.7 | – | – | 22.52
[3], 328.2 K | – | – | 32.2 | –
[3], 333.15 K | 1369.4 | – | – | 19.57
[3], 338.15 K | 1365.2 | – | – | 17.09
[3], 338.2 K | – | – | 31.75 | –
[3], 343.15 K | 1360.9 | – | – | 15.06
[3], 343.2 K | – | – | 31.53 | –
[3], 348.15 K | 1356.7 | – | – | 13.36
[3], 353.15 K | 1352.5 | – | – | 11.95
[3], 358.15 K | 1348.3 | – | – | 10.7
[3], 363.15 K | 1344.1 | – | – | 9.65
[4], 288.15 K | – | 1.42708 | – | –
[4], 293.15 K | – | 1.42563 | – | –
[4], 298.15 K | – | 1.42418 | – | –
[4], 303.15 K | – | 1.42273 | – | –
[4], 308.15 K | – | 1.42127 | – | –
[4], 313.15 K | – | 1.41982 | – | –
[4], 318.15 K | – | 1.41837 | – | –

Cc1ccc[n+](CC(C)C)c1.O=S(=O)([N-]S(=O)(=O)C(F)(F)F)C(F)(F)F
Conditions | molar heat capacity at constant pressure [J/K/mol]
[2] | 578.87

Conditions | mass density [kg/m3] | refractive index | surface tension liquid-gas [mN/m] | viscosity [mPa·s]
[3], 293.15 K | 1417.2 | – | – | 135.42
[3], 298.15 K | 1412.6 | – | – | 100.1
[3], 298.2 K | – | – | 33.45 | –
[3], 303.15 K | 1408 | – | – | 76.34
[3], 308.15 K | 1403.4 | – | – | 59.56
[3], 308.2 K | – | – | 32.99 | –
[3], 313.15 K | 1398.8 | – | – | 47.48
[3], 318.15 K | 1394.2 | – | – | 38.42
[3], 318.2 K | – | – | 32.54 | –
[3], 323.15 K | 1389.7 | – | – | 31.63
[3], 328.15 K | 1385.1 | – | – | 26.4
[3], 328.2 K | – | – | 32.08 | –
[3], 333.15 K | 1380.6 | – | – | 22.36
[3], 338.15 K | 1376.1 | – | – | 19.08
[3], 338.2 K | – | – | 31.63 | –
[3], 343.15 K | 1371.6 | – | – | 16.47
[3], 343.2 K | – | – | 31.4 | –
[3], 348.15 K | 1367.2 | – | – | 14.35
[3], 353.15 K | 1362.8 | – | – | 12.63
[3], 358.15 K | 1358.4 | – | – | 11.14
[3], 363.15 K | 1354.1 | – | – | 9.93
[4], 288.15 K | – | 1.44902 | – | –
[4], 293.15 K | – | 1.44743 | – | –
[4], 298.15 K | – | 1.44585 | – | –
[4], 303.15 K | – | 1.44426 | – | –
[4], 308.15 K | – | 1.44268 | – | –
[4], 313.15 K | – | 1.44109 | – | –
[4], 318.15 K | – | 1.43951 | – | –

CC(C)C[N+]1(C)CCCCC1.O=S(=O)([N-]S(=O)(=O)C(F)(F)F)C(F)(F)F
Conditions | Molar enthalpy of transition or fusion [kcal/mol] | Normal melting temperature [°C]
[1] | 0.574 | –
[3] | – | 14.8

Conditions | mass density [kg/m3] | refractive index | surface tension liquid-gas [mN/m] | viscosity [mPa·s]
[3], 303.15 K | 1392.9 | – | – | 125.12
[3], 308.15 K | 1388.6 | – | – | 96.4
[3], 308.2 K | – | – | 33.9 | –
[3], 313.15 K | 1384.4 | – | – | 76.03
[3], 318.15 K | 1380.1 | – | – | 60.67
[3], 318.2 K | – | – | 33.45 | –
[3], 323.15 K | 1375.9 | – | – | 49.34
[3], 328.15 K | 1371.7 | – | – | 40.71
[3], 328.2 K | – | – | 33.01 | –
[3], 333.15 K | 1367.5 | – | – | 34.11
[3], 338.15 K | 1363.3 | – | – | 28.76
[3], 338.2 K | – | – | 32.56 | –
[3], 343.15 K | 1359.1 | – | – | 24.57
[3], 343.2 K | – | – | 32.34 | –
[3], 348.15 K | 1355 | – | – | 21.18
[3], 353.15 K | 1350.8 | – | – | 18.47
[3], 358.15 K | 1346.7 | – | – | 16.14
[3], 363.15 K | 1342.7 | – | – | 14.25
[4], 288.15 K | – | 1.43387 | – | –
[4], 293.15 K | – | 1.43243 | – | –
[4], 298.15 K | – | 1.43099 | – | –
[4], 303.15 K | – | 1.42955 | – | –
[4], 308.15 K | – | 1.42812 | – | –
[4], 313.15 K | – | 1.42668 | – | –
[4], 318.15 K | – | 1.42524 | – | –
[4], 323.15 K | – | 1.42381 | – | –
[4], 328.15 K | – | 1.42237 | – | –
[4], 333.15 K | – | 1.42093 | – | –
